In US5218114A, “Cholecystokinin antagonists” (Merck & Co., Inc., priority 1992, dated 1993):
Where two headings read alike, the source gives them in different places. Square brackets hold non-standard residues; d marks the D form. Peptide text beside a SMILES is read from it. * marks the point of attachment. sY = N[C@@H](Cc1ccc(OS(=O)(=O)O)cc1)C(=O)O; Cbz = O=C(OCc1ccccc1)*

Experiments:
[1] = system: CCK-B receptors; conditions: Bock et al., J. Med. Chem., 32, 13-16 (1989); cited from earlier work
[2] = system: CCK receptor; conditions: literature; cited from earlier work
[3] = target: T1, CCK receptor (brain, cortex) (Cavia porcellus, UniProt H0VZC5); experiment: CCK Receptor Binding (Brain); design: species or system guinea pig (male Hartley)
T1 construct: the cortex was removed and homogenized in 25 mL ice-cold 0.32M sucrose; from tissue; host or cells: guinea pig brain cortex, P2 membranes
T1 sequence (H0VZC5 1-426): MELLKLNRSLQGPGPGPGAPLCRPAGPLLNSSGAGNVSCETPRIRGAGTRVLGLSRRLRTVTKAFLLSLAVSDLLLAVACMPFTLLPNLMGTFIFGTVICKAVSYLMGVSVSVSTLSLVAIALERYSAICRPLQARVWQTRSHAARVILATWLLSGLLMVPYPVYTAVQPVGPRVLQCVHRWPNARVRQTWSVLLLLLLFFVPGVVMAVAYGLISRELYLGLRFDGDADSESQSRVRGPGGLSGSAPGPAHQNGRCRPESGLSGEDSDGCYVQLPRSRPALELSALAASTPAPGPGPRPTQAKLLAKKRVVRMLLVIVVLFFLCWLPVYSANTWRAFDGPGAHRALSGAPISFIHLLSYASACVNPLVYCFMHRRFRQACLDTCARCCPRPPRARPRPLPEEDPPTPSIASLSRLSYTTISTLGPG
Method: 2. CCK Receptor Binding (Brain)
CCK-8 sulphated was radiolabelled and the binding was performed according to the description for the pancreas method with minor modifications.
Male Hartley guinea pigs (300-500 g) were sacrificed by decapitation and the cortex was removed and homogenized in 25 mL ice-cold 0.32M sucrose. The homogenates were centrifuged at 1000 g for 10 minutes and the resulting supernatant was recentrifuged at 20,000 g for 20 minutes. […] All assays were run in duplicate. The reaction mixtures were incubated at 25° C. for 2 hours and then the reaction was terminated on Whatman GF/C filters by rapid filtration (Brandell 24 well cell Harvester) with 3×5 ml washes of cold 100 mM NaCl. The radioactivity on the filters was then counted with a LKB gamma counter.
(§1) Drug displacement studies were performed with at least 10 concentrations of compounds of formula 1 and the IC50 values were determined by regression analysis.

[4] = target: T2, CCK receptor (pancreas) (Rattus norvegicus, UniProt P30551); experiment: CCK Receptor Binding (Pancreas); design: species or system rat (male Sprague-Dawley)
T2 construct: The whole pancreas was dissected free of fat tissue and was homogenized; from tissue; host or cells: rat whole pancreas, homogenate membranes
T2 sequence (P30551 1-444): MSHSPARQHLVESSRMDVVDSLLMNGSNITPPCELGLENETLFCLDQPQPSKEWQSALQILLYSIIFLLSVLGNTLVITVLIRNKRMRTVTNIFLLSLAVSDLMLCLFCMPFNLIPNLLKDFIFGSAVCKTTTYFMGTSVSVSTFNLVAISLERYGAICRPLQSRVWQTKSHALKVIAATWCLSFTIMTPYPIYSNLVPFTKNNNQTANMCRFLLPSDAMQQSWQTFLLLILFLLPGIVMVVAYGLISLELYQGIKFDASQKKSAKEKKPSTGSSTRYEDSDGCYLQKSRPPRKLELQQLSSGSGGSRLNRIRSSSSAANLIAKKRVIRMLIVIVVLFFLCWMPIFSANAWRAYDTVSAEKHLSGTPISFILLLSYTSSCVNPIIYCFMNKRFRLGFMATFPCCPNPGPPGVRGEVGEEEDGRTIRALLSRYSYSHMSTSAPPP
Method: 1. CCK Receptor Binding (Pancreas)
CCK-8 sulphated was radiolabelled with ^125 I-Bolton Hunter reagent (2000 Ci/mmole). Receptor binding was performed according to Chang and Lotti (Proc. Natl. Acad. Sci. 83, 4923-4926, 1986) with minor modifications.
Male Sprague-Dawley rats (150-200 g) were sacrificed by decapitation. The whole pancreas was dissected free of fat tissue and was homogenized in 25 volumes of ice-cold 10 mM Hepes buffer with 0.1% soya bean trypsin inhibitor (pH 7.4 at 25° C.) with a Kinematica Polytron. The homogenates were centrifuged at 47,800 g for 10 min. Pellets were resuspended in 10 volumes of binding assay buffer (20 mM Hepes, 1 mM EGTA, 5 mM MgCl2, 150 mM NaCl, bacitracin 0.25 mg/ml, soya bean trypsin inhibitor 0.1 mg/ml, and bovine serum albumin 2 mg/ml, pH 6.5 at 25° C.) using a teflon homogenizer, 15 strokes at 500 rpm. The homogenate was further diluted in binding assay buffer to give a final concentration of 0.5 mg original wet weight/1 ml buffer. […] All assays were run in duplicate. The reaction mixtures were incubated at 25° C. for 2 hours and the reaction terminated by rapid filtration (Brandell 24 well cell harvester) over Whatman GF/C filters, washing 3×4 mls with ice-cold 100 mM NaCl. The radioactivity on the filters was counted with a LKB gamma counter.
as §1

[5] = system: gastrin; conditions: J. Martinez, J. Med. Chem. 27, 1597 (1984); cited from earlier work
[6] = 125I-CCK-8 50 pM, guinea pig cortex, 25° C., 2 hours, read-out: CCK RECEPTOR BINDING RESULTS IC50, 125I-CCK Brain
[7] = 125I-CCK-8 50 pM, rat pancreas, 25° C., 2 hours, read-out: CCK RECEPTOR BINDING RESULTS IC50, 125I-CCK Pancreas

Cc1cccc(NC(=O)N[C@@H]2N=C(c3ccccc3)c3ccccc3N(C)C2=O)c1 [(R)-N-(2,3-dihydro-1-methyl-2-oxo-5-phenyl-1H-1,4-benzodiazepin-3-yl)-N^1-(3-methylphenyl) urea]
antagonist of CCK-B receptors [1]: potent and selective antagonist of CCK-B receptors

CSCC[C@H](NC(=O)[C@H](Cc1ccc(OS(=O)(=O)O)cc1)NC(=O)OCc1ccccc1)C(=O)NCC(=O)N[C@@H](Cc1c[nH]c2ccccc12)C(=O)N[C@@H](CCSC)C(=O)N[C@@H](CC(=O)O)C(N)=O [Cbz--Tyr(SO3 H)--Met--Gly--Trp--Met--Asp--NH2] (Cbz-[sY]MGWMD-NH2)
CCK-receptor antagonist potency / agonism [2]: partial agonist

O=C(Nc1ccc(Cl)cc1)NC1N=C(c2ccccc2)c2ccccc2N(Cc2nnn[nH]2)C1=O (centres unmarked) [Example 1, N-{1,3-Dihydro-1-[1H-tetrazol-5yl]methyl-2-oxo-5-phenyl-1H-1,4-benzodiazepin-3-yl}-N'-{[4-chlorophenyl]-urea}]
IC50 [3, 6]: 0.494 µM | IC50 [4]: 2.13 µM

O=C(Nc1ccc(Cl)cc1)NC1N=C(c2ccccc2)c2ccccc2N(CC(O)CN2CCCC2)C1=O (centres unmarked) [Example 2, N-{1,3-Dihydro-1-[3-((pyrrolidinyl)-2-hydroxy)propyl]-2-oxo-5-phenyl-1H-1,4-benzodiazepin-3-yl}-N'-{[4-chlorophenyl]-urea}]
IC50 [3, 6]: 0.3 µM | IC50 [4]: > 3 µM

CN(C)CC(O)CN1C(=O)C(NC(=O)Nc2ccc(Cl)cc2)N=C(c2ccccc2)c2ccccc21 (centres unmarked) [Example 3, N-{1,3-Dihydro-1-[3-((dimethylamino)-2-hydroxy)propyl]-2-oxo-5-phenyl-1H-1,4-benzodiazepin-3-yl}-N'-{[4-chlorophenyl]-urea}]
IC50 [3, 6]: 0.43 µM | IC50 [4]: > 3 µM

O=C(Nc1ccc(Cl)cc1)NC1N=C(c2ccccc2)c2ccccc2N(CC(Cl)CO)C1=O (centres unmarked) [Example 4, N-{1,3-Dihydro-1-[3-((hydroxy)-2-chloro)propyl]-2-oxo-5-phenyl-1H-1,4-benzodiazepin-3-yl}-N'-{[4-chlorophenyl]-urea}]
IC50 [3, 6]: 0.062 µM | IC50 [4, 7]: > 3 µM

O=C(Nc1ccc(Cl)cc1)NC1N=C(c2ccccc2)c2ccccc2N(CC(O)CO)C1=O (centres unmarked) [Example 5, N-{1,3-Dihydro-1-[2,3-(dihydroxy)propyl]-2-oxo-5-phenyl-1H-1,4-benzodiazepin-3-yl}-N'-{[4-chlorophenyl]-urea}]
IC50 [3]: 0.118 µM | IC50 [4, 7]: > 3 µM

CCCC(=O)Nc1nc2c(ncn2[C@@H]2O[C@@H]3COP(=O)(O)O[C@H]3[C@H]2OC(=O)CCC)c(=O)[nH]1 [dibutyryl cyclic GMP]
CCK-receptor antagonist potency / agonism [2]: the most potent

CCCN(CCC)C(=O)C(CCC(=O)O)NC(=O)c1ccccc1 (centres unmarked) [proglumide]
in vitro gastrin antagonism [5]: very weak in vitro antagonists
